Earlier results as cited in patent publication US20040248979A1, “Method of treating lower urinary tract disorders” (DYNOGEN PHARMACEUTICALS, INC., priority 2003, published 2004).

Tests used:
[1] = system: α2δ subunits of calcium channels
[2] = preclinical and clinical studies

In the case of `COc1cccc([C@]2(O)CCCC[C@H]2CN(C)C)c1` (racemic) [Tramadol, (+/−)cis-2-[(dimethylamino)methyl]-1-(3-methoxyphenyl) cyclohexanol], the “affinity for opioid receptors” value (opioid receptors) is given as “low affinity”.
For `NCC1(CC(=O)O)CCCCC1` [Gabapentin, 1-(aminomethyl) cyclohexaneacetic acid], the “binding affinity for calcium channel subunits” value [1] is given as “high binding affinity”.
For `CC(C)C[C@H](CN)CC(=O)O` [Pregabalin, (3S)-3-(aminomethyl)-5-methylhexanoic acid], the “binding affinity for calcium channel subunits” value [1] is listed as “even higher binding affinity for certain α2δ subunits of calcium channels than gabapentin”.
For `CC(OC(=O)NCC1(CC(=O)O)CCCCC1)OC(=O)C(C)C` (centres unmarked) [XP13512], the “blood levels of gabapentin across oral doses” value ([2]; broad range of oral doses) is given as “dose proportional blood levels of gabapentin” and the “absorption from the large intestine” value [2] is given as “absorbed efficiently from the large intestine”.
